Data on 1 compound can be found in US20240269238A1, “Therapeutic Regimens and Methods for Reducing Body Weight in a Subject with Fatty Liver Disease using a GLP-1R and GCGR Agonist” (Spitfire Pharma LLC, priority 2022, published 2024).

The structures appear in SMILES notation. “Also recorded” adds a separate entry of the source.

Type in all cases: in vivo, human
The nature of series [1]: Phase 1 study NCT0456124 (Example 2): safety and tolerability. The note with it: 12 weeks.
Series [2] is described as follows: Phase 1 12-week NAFLD study (Example 1): safety, tolerability, serum lipids, glycemic control, heart rate. As to conditions: for AE leading to treatment discontinuation, number of subjects: gastrointestinal intolerance. An excerpt:
(§1) Provided herein is disclosure of a Phase 1, multicenter, randomized, double-blind, placebo-controlled study to assess the effects of Pemvidutide (also termed herein as ALT-801), the safety of Pemvidutide and effects on hepatic fat fraction, anthropometric parameters, lipid metabolism, inflammatory markers and fibrosis markers in diabetic and non-diabetic (type 2 diabetes) overweight and obese (BMI 28.0 kg/m^2) subjects with NAFLD. This study was designed to assess changes in hepatic fat fraction by MRI-PDFF (magnetic resonance imaging-proton density fat fraction) in diabetic and non-diabetic overweight and obese subjects with NAFLD after 12 weeks of ALT-801 treatment. The trial was conducted without adjunctive diet and exercise interventions. The study assessed changes in body weight, lipid metabolism, metabolic markers, and inflammatory markers and safety and tolerability of ALT-801 after 12 weeks of treatment. Subjects were stratified for the presence or absence of diabetes at baseline. Fibroscan and cT1 assessments evaluated changes in liver inflammatory and fibrotic activity at the end of 12 weeks of treatment.
(§2) The study, described in this example, was carried out in 94 subjects overweight and obese (body mass index [BMI] ≥28.0 kg/m^2) Type 2 diabetic and non-diabetic subjects with nonalcoholic fatty liver disease (NAFLD) over about 4.5 months, including up to a 35-day screening period, and 85-day treatment period and a 25-day follow-up period, with treatment with ALT-801 (a composition comprising SEQ ID NO.: 1, “study medication”) or placebo administered by subcutaneous (SC) injection once weekly for up to twelve (12) doses.
The safety objective of this study was to assess the safety and tolerability of ALT-801 in 18-65 years old subjects with NAFLD (NAFLD without significant fibrosis, defined as FibroScan® controlled attenuation parameter (CAP) ≥280 dB/m and liver stiffness measurement (LSM)<10 kPa (i.e., indicating the absence of significant fibrosis), magnetic resonance imaging derived proton density fat fraction (MRI-PDFF) ≥10%), hemoglobin Alc (HbAlc) of less than 9.5%, and alanine aminotransferase (ALT) or aspartate aminotransferase (AST) values of ≤[…]. The pharmacodynamic (PD) objectives of this study were to evaluate the effects of ALT-801 on hepatic fat fraction, anthropometric parameters, lipid metabolism, metabolic markers, inflammatory markers, fibrosis markers, and lipotoxicity markers. The pharmacokinetic (PK) objectives of this study were to evaluate the effects of ALT-801 and metformin exposure (drug interactions) on the subjects (e.g., ALT-801 and metformin concentrations in blood over time).
After providing informed consent, subjects underwent a screening period of up to 35 days. Subjects were instructed on how to maintain their normal diets, alcohol consumption and physical activities and not to start any new diets, supplements, or exercise programs at any time while participating in the study. Counseling was provided on diet and exercise on the Day 1 visit and reinforced at subsequent visits. Study subjects were randomized 1:1:1:1 to one of the following treatment arms: 1) ALT-8011.2 mg SC once weekly for 12 weeks; 2) ALT-8011.8 mg SC once weekly for 12 weeks; 3) ALT-801 0.6 mg SC at week 1, 1.2 mg SC at week 2, 1.8 mg SC once weekly for 2 weeks (weeks 3 and 4), and 2.4 mg SC once weekly for weeks 5 through 12; or, 4) placebo SC once weekly for 12 weeks. Subjects were stratified by presence or absence of diabetes at baseline. Subjects in the treatment arm with a final therapeutic dose of 2.4 mg underwent a rapid 4-week dose escalation to improve tolerability and reduce the possibility of adverse events. […] See FIG. 7, second 2.4 mg column as compared to the first 2.4 mg column (this study). See WO 2022/125598. […]

A further series relates to Iron-corrected T1 (cT1). The experiment in a line: Phase 1 12-week NAFLD study (Example 1): iron-corrected T1 (cT1) responder analysis. As to conditions: week 12.
From the text: as §1, §2
After providing informed consent, subjects underwent a screening period of up to 35 days. Subjects were instructed on how to maintain their normal diets, alcohol consumption and physical activities and not to start any new diets, supplements, or exercise programs at any time while participating in the study. […]

Turning to `CC[C@H](C)[C@H](NC(=O)[C@H](Cc1ccccc1)NC(=O)[C@H](CCC(=O)O)NC(=O)[C@@H]1CCCCNC(=O)CC[C@H](NC(=O)[C@H](CC(=O)O)NC(=O)[C@H](CC(C)C)NC(=O)[C@H](Cc2ccc(O)cc2)NC(=O)[C@H](CCCCN)NC(=O)[C@H](CO)NC(=O)[C@H](Cc2ccc(O)cc2)NC(=O)[C@H](CC(=O)O)NC(=O)[C@H](CO)NC(=O)[C@@H](NC(=O)[C@H](Cc2ccccc2)NC(=O)[C@@H](NC(=O)CNC(=O)[C@H](CCC(N)=O)NC(=O)C(C)(C)NC(=O)[C@@H](N)Cc2c[nH]cn2)[C@@H](C)O)[C@H](C)O)C(=O)N[C@@H](CCCCNC(=O)C2O[C@@H](OCCCCCCCCCCCCCCCCCC(=O)O)C(O)C(O)[C@@H]2O)C(=O)N[C@@H](C)C(=O)N[C@@H](C)C(=O)N1)C(=O)N[C@@H](CCC(N)=O)C(=O)N[C@@H](Cc1c[nH]c2ccccc12)C(=O)N[C@@H](CC(C)C)C(=O)N[C@@H](CC(C)C)C(=O)N[C@@H](CCC(N)=O)C(=O)N[C@H](C(N)=O)[C@@H](C)O` (stereo partly drawn) [ALT-801, Pemvidutide], the tolerability result in series [1] (1.2, 1.8, 2.4 mg weekly, no dose titration) was “well-tolerated at all dose levels; also recorded: safe and well-tolerated”. Further, in series [1], the “SAEs or AEs leading to treatment discontinuation” value is given as “no SAEs or AEs leading to treatment discontinuation were reported” and the “severity of AEs” value was “mild or moderate severity”. Moreover, in series [2] (1.8 mg arm, 12 weeks), the “AE leading to treatment discontinuation, rate” value is recorded as 4.3% and the “AE leading to treatment discontinuation, number of subjects” value was 1. Besides, in series [2] (2.4 mg arm, 12 weeks), the “AE leading to treatment discontinuation, rate” value amounted to 4.2% and the “AE leading to treatment discontinuation, number of subjects” value is given as 1. Moreover, in series [2] (12 weeks), the “AEs leading to treatment discontinuation (in words)” value is given as “very low rates”; the “clinically significant ALT elevations (3-fold or greater the upper limit of normal)” value is recorded as “No clinically significant ALT elevations; also recorded: no three-fold or greater ALT elevations were observed”; the “glycemic control (HbA1c, fasting glucose)” value was “unaffected”; the “increases in heart rate (HR)” value is listed as 1-3 beat-per-minute (bpm). Moreover, in series [2] (12 weeks treatment), the “serious and severe adverse events” value is “No serious adverse events (AEs), severe AEs were observed; also recorded: no severe or serious AEs were observed”; the “symptoms experienced by subjects (severity)” value is “predominantly mild and transient”. In series [2] (after 12 weeks), the serum lipids result is reported as “not significantly altered”. Moreover, the tolerability result in series [2] (each treatment arm (FIG. 7)) is “well tolerated”. For the same compound, in the series on Iron-corrected T1 (cT1) (1.2 mg), the “proportion of subjects showing >=80 ms for Iron-corrected T1 (cT1)” value (“proportion of subjects showing >=80 ms” for short) worked out at 87.5%. In addition, the “proportion of subjects showing >=80 ms” value in the series with Iron-corrected T1 (cT1) (1.8 mg) is reported as 83.3%. The “proportion of subjects showing >=80 ms” value in the series with Iron-corrected T1 (cT1) (2.4 mg) stood at 85.7%.
